Laboratory results published in patent US9657002B2, “Oxindole derivatives carrying an oxetane substituent and use thereof for treating vassopressin-related diseases” (AbbVie Deutschland GmbH & Co. KG, priority 2013, dated 2017).

Legend:
[1] = biological target: T1, human vasopressin V1b receptor (Homo sapiens, UniProt P47901); assay: biochemical
T1 sequence (P47901 1-424): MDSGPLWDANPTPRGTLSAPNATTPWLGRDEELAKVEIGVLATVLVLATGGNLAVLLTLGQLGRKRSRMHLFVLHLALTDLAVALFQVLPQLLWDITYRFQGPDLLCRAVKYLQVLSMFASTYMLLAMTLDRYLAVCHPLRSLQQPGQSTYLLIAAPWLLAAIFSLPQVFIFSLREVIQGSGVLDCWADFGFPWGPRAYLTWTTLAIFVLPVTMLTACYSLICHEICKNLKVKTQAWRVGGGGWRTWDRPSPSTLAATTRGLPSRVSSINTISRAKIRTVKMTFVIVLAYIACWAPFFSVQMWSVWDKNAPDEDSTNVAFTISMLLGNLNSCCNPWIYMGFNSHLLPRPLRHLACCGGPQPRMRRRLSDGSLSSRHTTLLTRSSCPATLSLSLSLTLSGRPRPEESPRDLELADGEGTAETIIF

[2] = biological target: human vasopressin V1a receptor (Homo sapiens, UniProt P37288); assay: Vasopressin V1a receptor binding assay; conditions: selectivity quotient, human V1a vs human V1b
Chain of human vasopressin V1a receptor (P37288 whole entry): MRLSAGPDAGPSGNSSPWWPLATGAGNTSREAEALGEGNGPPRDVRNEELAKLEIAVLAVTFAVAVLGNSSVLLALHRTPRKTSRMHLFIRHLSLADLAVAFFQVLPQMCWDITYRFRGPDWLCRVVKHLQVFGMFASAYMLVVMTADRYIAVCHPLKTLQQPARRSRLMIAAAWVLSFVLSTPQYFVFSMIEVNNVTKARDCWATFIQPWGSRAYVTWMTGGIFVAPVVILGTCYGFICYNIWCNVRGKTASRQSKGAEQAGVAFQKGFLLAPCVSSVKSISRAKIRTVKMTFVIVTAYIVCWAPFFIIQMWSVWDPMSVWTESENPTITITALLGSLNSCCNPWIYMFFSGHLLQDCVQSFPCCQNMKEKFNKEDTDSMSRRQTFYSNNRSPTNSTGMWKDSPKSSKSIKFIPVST

Ki [1] | Ki(h-V1a)/Ki(h-V1b) [2] | Structure (SMILES)
< 1 nM | +++ (>75) | CCOc1ncccc1[C@]1(NC(=O)N2CCN(C3CCN(C4COC4)CC3)CC2)C(=O)N(S(=O)(=O)c2ccc(OC)cc2OC)c2cc(F)c(C#N)cc21 [Example 7A, (S)—N-(5-cyano-1-((2,4-dimethoxyphenyl)sulfonyl)-3-(2-ethoxypyridin-3-yl)-6-fluoro-2-oxoindolin-3-yl)-4-(1-(oxetan-3-yl)piperidin-4-yl)piperazine-1-carboxamide]
< 1 nM | +++ (>75) | CCOc1ncccc1[C@]1(NC(=O)N2CCC(C3CCN(C4COC4)CC3)CC2)C(=O)N(S(=O)(=O)c2ccc(OC)cc2OC)c2ccc(C#N)cc21 [Example 11, (S)—N-(5-cyano-1-((2,4-dimethoxyphenyl)sulfonyl)-3-(2-ethoxypyridin-3-yl)-2-oxoindolin-3-yl)-1′-(oxetan-3-yl)-[4,4′-bipiperidine]-1-carboxamide]
– | + (10-<25) | CCOc1ncccc1[C@]1(NC(=O)N2CCN(C3CCN(C4COC4)CC3)CC2)C(=O)N(S(=O)(=O)c2ccc(OC)c(C)c2C)c2ccc(C#N)cc21 [Example 18, (S)—N-(5-cyano-3-(2-ethoxypyridin-3-yl)-1-((4-methoxy-2,3-dimethylphenyl)sulfonyl)-2-oxoindolin-3-yl)-4-(1-(oxetan-3-yl)piperidin-4-yl)piperazine-1-carboxamide]
10 to 100 nM | +++ (>75) | CCOc1ncccc1[C@]1(NC(=O)N2CCN(C3CCN(CC4COC4)CC3)CC2)C(=O)N(S(=O)(=O)c2ccc(OC)cc2OC)c2ccc(C#N)cc21 [Example 19, (S)—N-(5-cyano-1-((2,4-dimethoxyphenyl)sulfonyl)-3-(2-ethoxypyridin-3-yl)-2-oxoindolin-3-yl)-4-(1-(oxetan-3-ylmethyl)piperidin-4-yl)piperazine-1-carboxamide]
10 to 100 nM | +++ (>75) | CCOc1ncccc1[C@]1(NC(=O)N2CCN(C3CCN(C4COC4)CC3)CC2)C(=O)N(S(=O)(=O)c2ccc(OC)cc2)c2ccc(C#N)cc21 [Example 24, N-[(3S)-5-cyano-3-(2-ethoxy-3-pyridyl)-1-(4-methoxyphenyl)sulfonyl-2-oxo-indolin-3-yl]-4-[1-(oxetan-3-yl)-4-piperidyl]piperazine-1-carboxamide]
1 to 10 nM | +++ (>75) | CCOc1ncccc1[C@]1(NC(=O)N2CCN(C3CCN(C4COC4)CC3)CC2)C(=O)N(S(=O)(=O)c2ccc(OC)cn2)c2ccc(C#N)cc21 [Example 25, N-[(3S)-5-cyano-3-(2-ethoxy-3-pyridyl)-1-[(5-methoxy-2-pyridyl)sulfonyl]-2-oxo-indolin-3-yl]-4-[1-(oxetan-3-yl)-4-piperidyl]piperazine-1-carboxamide]
1 to 10 nM | +++ (>75) | CCOc1ncccc1[C@]1(NC(=O)N2CCN(C3CCN(C4COC4)CC3)CC2)C(=O)N(S(=O)(=O)c2ccc(F)cc2OC)c2ccc(C#N)cc21 [Example 26, N-[(3S)-5-cyano-3-(2-ethoxy-3-pyridyl)-1-(4-fluoro-2-methoxy-phenyl)sulfonyl-2-oxo-indolin-3-yl]-4-[1-(oxetan-3-yl)-4-piperidyl]piperazine-1-carboxamide]
< 1 nM | +++ (>75) | COc1ccc(S(=O)(=O)N2C(=O)[C@@](NC(=O)N3CCC(C4CCN(C5COC5)CC4)CC3)(c3cccnc3OC)c3cc(C#N)ccc32)c(OC)c1 [Example 27, N-[(3S)-5-cyano-1-(2,4-dimethoxyphenyl)sulfonyl-3-(2-methoxy-3-pyridyl)-2-oxo-indolin-3-yl]-4-[1-(oxetan-3-yl)-4-piperidyl]piperidine-1-carboxamide]
10 to 100 nM | +++ (>75) | CCOc1ncccc1[C@]1(NC(=O)N2CCN(C3CCN(C4COC4)CC3)CC2)C(=O)N(S(=O)(=O)c2ccc(F)cc2)c2ccc(C#N)cc21 [Example 28, N-[(3S)-5-cyano-3-(2-ethoxy-3-pyridyl)-1-(4-fluorophenyl)sulfonyl-2-oxo-indolin-3-yl]-4-[1-(oxetan-3-yl)-4-piperidyl]piperazine-1-carboxamide]
1 to 10 nM | + (10-<25) | COc1ccc(S(=O)(=O)N2C(=O)[C@@](NC(=O)N3CCN(C4CCN(C5COC5)CC4)CC3)(c3cccnc3OC)c3cc(C#N)ccc32)nc1 [Example 29, N-[(3S)-5-cyano-3-(2-methoxy-3-pyridyl)-1-[(5-methoxy-2-pyridyl)sulfonyl]-2-oxo-indolin-3-yl]-4-[1-(oxetan-3-yl)-4-piperidyl]piperazine-1-carboxamide]
1 to 10 nM | +++ (>75) | COc1cc(F)ccc1S(=O)(=O)N1C(=O)[C@@](NC(=O)N2CCN(C3CCN(C4COC4)CC3)CC2)(c2cccnc2OC)c2cc(C#N)ccc21 [Example 30, N-[(3S)-5-cyano-1-(4-fluoro-2-methoxy-phenyl)sulfonyl-3-(2-methoxy-3-pyridyl)-2-oxo-indolin-3-yl]-4-[1-(oxetan-3-yl)-4-piperidyl]piperazine-1-carboxamide]
10 to 100 nM | +++ (>75) | COc1ccc(S(=O)(=O)N2C(=O)[C@@](NC(=O)N3CCC(N4CCN(C5COC5)CC4)CC3)(c3cccnc3OC)c3cc(C#N)ccc32)c(OC)c1 [Example 31, N-[(3S)-5-cyano-1-(2,4-dimethoxyphenyl)sulfonyl-3-(2-methoxy-3-pyridyl)-2-oxo-indolin-3-yl]-4-[4-(oxetan-3-yl)piperazin-1-yl]piperidine-1-carboxamide]
10 to 100 nM | +++ (>75) | CCOc1ccc(OC)cc1[C@]1(NC(=O)N2CCN(C3CCN(C4COC4)CC3)CC2)C(=O)N(S(=O)(=O)c2ccc(OC)cn2)c2ccc(C#N)cc21 [Example 32, N-[(3S)-5-cyano-3-(2-ethoxy-5-methoxy-phenyl)-1-[(5-methoxy-2-pyridyl)sulfonyl]-2-oxo-indolin-3-yl]-4-[1-(oxetan-3-yl)-4-piperidyl]piperazine-1-carboxamide]
1 to 10 nM | +++ (>75) | CCOc1ccc(OC)cc1[C@]1(NC(=O)N2CCN(C3CCN(C4COC4)CC3)CC2)C(=O)N(S(=O)(=O)c2ccc(OC)cc2OC)c2ccc(C#N)cc21 [Example 33, N-[(3S)-5-cyano-1-(2,4-dimethoxyphenyl)sulfonyl-3-(2-ethoxy-5-methoxy-phenyl)-2-oxo-indolin-3-yl]-4-[1-(oxetan-3-yl)-4-piperidyl]piperazine-1-carboxamide]
10 to 100 nM | ++ (25-75) | COc1ccc(S(=O)(=O)N2C(=O)[C@@](NC(=O)N3CCN(C4CCN(C5COC5)CC4)CC3)(c3cccnc3OC)c3cc(C#N)ccc32)cc1 [Example 34, N-[(3S)-5-cyano-1-(4-methoxyphenyl)sulfonyl-3-(2-methoxy-3-pyridyl)-2-oxo-indolin-3-yl]-4-[1-(oxetan-3-yl)-4-piperidyl]piperazine-1-carboxamide]
< 1 nM | – | COc1ccc(S(=O)(=O)N2C(=O)[C@@](NC(=O)N3CCC(C4CCN(C5COC5)CC4)CC3)(c3cccnc3OC)c3cc(C#N)ccc32)nc1 [Example 39, N-[(3S)-5-cyano-3-(2-methoxy-3-pyridyl)-1-[(5-methoxy-2-pyridyl)sulfonyl]-2-oxo-indolin-3-yl]-4-[1-(oxetan-3-yl)-4-piperidyl]piperidine-1-carboxamide]
